Legend:
Type in all cases: cell-based
[1] = system: RKO cells; assay: MTT assay in RKO cells; conditions: Homo sapiens
Description: (§1) The inventors identified nine inhibitors and perfomed an EdU assay after treating non-malignant (HEK293, AML12) and malignant (HepG2, MzChA-1, HT-29, RKO) cells with varying concentrations of GIT1 inhibitor for 24 hours (results are mean±SE from 3 independent experiments done in duplicates, *p<0.05 vs. DMSO). An MTT assay was also performed after treating primary human and mouse hepatocytes and liver and colon cancer cells with varying concentrations of GIT1 inhibitor for 24 hours (results are mean±SE from 3 independent experiments done in duplicates, *p<0.05 vs. DMSO). […] Percoll may be used to remove dead human hepatocytes.

[2] = system: HepG2 cells; assay: MTT assay in HepG2 cells; conditions: Homo sapiens
Description: as §1

[3] = system: human hepatocytes; assay: Toxicity in human hepatocytes; conditions: data not shown
Description: as §1

[4] = system: mouse hepatocytes; assay: Toxicity in mouse hepatocytes; conditions: data not shown
Description: as §1

IC50 [2] [µM] | SMILES | IC50 [1] [µM] | toxicity in human hepatocytes [3] | toxicity in mouse hepatocytes [4]
> 50 | CC(=O)c1ccc(NC(=O)Cn2cnc3c(sc4nc5c(cc43)COC(C)(C)C5)c2=O)cc1 [Compound C38] | > 25 | – | –
> 25 | COc1cccc(NC(=O)Cn2cnc3c(sc4nc5c(cc43)COC(C)(C)C5)c2=O)c1 [Compound C39] | > 50 | – | –
0.83 | CC1(C)Cc2nc3sc4c(=O)n(CC(=O)N5CCOCC5)cnc4c3cc2CO1 [Compound C33] | 0.98 | no toxicity | no toxicity
